Where “and” joins values, the source holds several entries; their conditions need not be identical. Equal entries are not always repeated.
System: BDF1 mice, Adenocarcinoma 755 s.c., tumor weight T/C
Assay: NCI In Vivo Anticancer Drug Screen. Data for tumor model Adenocarcinoma 755 (subcutaneous) in B6D2F1 (BDF1) mice
Conditions: endpoint: mean tumor weight, schedule: Q01DX011 (ip), higher = larger tumour
Description: The antitumor activity of compounds was measured in mice bearing transplantable tumors. Survival or tumor size were measured and the results are expressed as the measurement made in the treated group (T) divided by the measurement made in the vehicle treated control group (C). The tumor model used in this assay is Adenocarcinoma 755 (subcutaneous) in B6D2F1 (BDF1) mice

[1] = dose: 25.0 mg/kg/injection, vehicle: carboxymethylcellulose (CMC)
[2] = dose: 50.0 mg/kg/injection, vehicle: carboxymethylcellulose (CMC)
[3] = dose: 6.0 mg/kg/injection, vehicle: carboxymethylcellulose (CMC)
[4] = dose: 12.0 mg/kg/injection, vehicle: carboxymethylcellulose (CMC)
[5] = dose: 30.0 mg/kg/injection, vehicle: carboxymethylcellulose (CMC)
[6] = dose: 60.0 mg/kg/injection, vehicle: carboxymethylcellulose (CMC)
[7] = dose: 15.0 mg/kg/injection, vehicle: methylcellulose (MC)
[8] = dose: 62.0 mg/kg/injection, vehicle: methylcellulose (MC)
[9] = dose: 125.0 mg/kg/injection, vehicle: methylcellulose (MC)
[10] = dose: 250.0 mg/kg/injection, vehicle: methylcellulose (MC)
[11] = dose: 3.0 mg/kg/injection, vehicle: carboxymethylcellulose (CMC)
[12] = dose: 15.0 mg/kg/injection, vehicle: carboxymethylcellulose (CMC)
[13] = dose: 31.0 mg/kg/injection, vehicle: methylcellulose (MC)

Question: What does the source list for `CCCOC(=O)C1(N)CCCC1`?
Answer: T/C (dose: 12.5 mg/kg/injection, vehicle: carboxymethylcellulose (CMC)): 79 % of control; T/C [1]: 44 % of control; T/C [2]: 24 % of control; T/C (dose: 100.0 mg/kg/injection, vehicle: carboxymethylcellulose (CMC)): 7 % of control

Question: Which T/C [3] does the source give for `[I][Hg][CH2][C@H]1CO[C@H]([CH2][Hg][I])CO1` here?
Answer: 95 % of control

Question: What about the T/C [4] of the same compound?
Answer: 46 % of control

Question: And the T/C [1]?
Answer: 32 % of control and 33 % of control

Question: And the T/C [2]?
Answer: 21 % of control

Question: For `CC(c1ccccc1)c1nc2c([nH]1)c(=O)n(C)c(=O)n2C` (centres undefined), which T/C (dose: 40.0 mg/kg/injection, vehicle: methylcellulose (MC)) is on record?
Answer: 99 % of control

Question: What about the T/C (dose: 75.0 mg/kg/injection, vehicle: methylcellulose (MC)) of the same compound?
Answer: 86 % of control

Question: And the T/C (dose: 150.0 mg/kg/injection, vehicle: methylcellulose (MC))?
Answer: 72 % of control

Question: How did the T/C (dose: 30.0 mg/kg/injection, vehicle: methylcellulose (MC)) turn out when `C/C(=N\NC(=O)c1ccncc1)c1ccc(Cl)cc1Cl` was run?
Answer: 41 % of control

Question: What about the T/C (dose: 60.0 mg/kg/injection, vehicle: methylcellulose (MC)) of the same compound?
Answer: 58 % of control

Question: How did the T/C (dose: 7.0 mg/kg/injection, vehicle: carboxymethylcellulose (CMC)) turn out when `CC1CCN2CCC(O)C12` (centres undefined) was run?
Answer: 98 % of control

Question: With `Clc1ncc2[nH]c(Cl)nc2n1` as the compound, how does the T/C [5] read?
Answer: 96 % of control

Question: What about the T/C [6] of the same compound?
Answer: 112 % of control

Question: For `OC(CN1CCCCC1)c1ccc(/C=C/c2ccc(Cl)cc2)cc1` (centres undefined), which T/C (dose: 118.0 micrograms/kg/injection, vehicle: methylcellulose (MC)) is on record?
Answer: 40 % of control

Question: And the T/C (dose: 237.0 micrograms/kg/injection, vehicle: methylcellulose (MC))?
Answer: 55 % of control

Question: And the T/C (dose: 475.0 micrograms/kg/injection, vehicle: methylcellulose (MC))?
Answer: 49 % of control

Question: For `CCCCCCCCCCCC[N+](C)(C)c1ncnc2nc[nH]c12`, which T/C [4] is on record?
Answer: 103 % of control

Question: What about the T/C (dose: 24.0 mg/kg/injection, vehicle: carboxymethylcellulose (CMC)) of the same compound?
Answer: 55 % of control

Question: And the T/C (dose: 48.0 mg/kg/injection, vehicle: carboxymethylcellulose (CMC))?
Answer: 13 % of control

Question: Which T/C [7] does the source give for `Cc1cnc(SCc2ccccc2)nc1N(C)C` here?
Answer: 57 % of control

Question: What about the T/C [8] of the same compound?
Answer: 60 % of control

Question: What about the T/C [9] of the same compound?
Answer: 65 % of control

Question: And the T/C [10]?
Answer: 50 % of control

Question: What does the source list for `C1CN1P1(N2CC2)=NP(N2CC2)(N2CC2)=NP(N2CC2)(N2CC2)=N1`?
Answer: T/C [11]: 60 % of control; T/C [3]: 43 % of control; T/C (dose: 6.0 mg/kg/injection, vehicle: methylcellulose (MC)): 17 % of control and 21 % of control; T/C [4]: 9 % of control

Question: Which T/C [11] does the source give for `CCOP(=O)(O)OCC1OC(n2cnc3c(=S)nc[nH]c32)C(O)C1O` (centres undefined) here?
Answer: 12 % of control

Question: And the T/C [3]?
Answer: 2 % of control

Question: And the T/C [4]?
Answer: 4 % of control

Question: How did the T/C (dose: 0.02 mg/kg/injection, vehicle: carboxymethylcellulose (CMC)) turn out when `COC(C(=O)C(O)C(C)O)C1Cc2cc3cc(OC4CC(OC(C)=O)C(OC5CC(O)C(OC)C(C)O5)C(C)O4)cc(O)c3c(O)c2C(=O)C1OC1CC(OC2CC(OC3CC(C)(O)C(OC(=O)C(C)C)C(C)O3)C(O)C(C)O2)C(O)C(C)O1` (centres undefined) was run?
Answer: 93 % of control

Question: What about the T/C (dose: 0.04 mg/kg/injection, vehicle: carboxymethylcellulose (CMC)) of the same compound?
Answer: 93 % of control

Question: What about the T/C (dose: 0.08 mg/kg/injection, vehicle: carboxymethylcellulose (CMC)) of the same compound?
Answer: 52 % of control

Question: What about the T/C (dose: 0.15 mg/kg/injection, vehicle: saline) of the same compound?
Answer: 114 % of control

Question: And the T/C (dose: 0.16 mg/kg/injection, vehicle: carboxymethylcellulose (CMC))?
Answer: 14 % of control and 39 % of control

Question: What about the T/C (dose: 0.33 mg/kg/injection, vehicle: saline) of the same compound?
Answer: 66 % of control

Question: And the T/C (dose: 0.66 mg/kg/injection, vehicle: saline)?
Answer: 54 % of control

Question: And the T/C (dose: 1.25 mg/kg/injection, vehicle: saline)?
Answer: 8 % of control and 11 % of control

Question: And the T/C (dose: 2.5 mg/kg/injection, vehicle: saline)?
Answer: 2 % of control and 3 % of control

Question: Which results are given for `OC(CBr)C(O)C(O)C(O)CBr` (centres undefined)?
Answer: T/C (dose: 25.0 mg/kg/injection, vehicle: saline): 48 % of control; T/C (dose: 50.0 mg/kg/injection, vehicle: saline): 64 % of control and 71 % of control; T/C (dose: 100.0 mg/kg/injection, vehicle: saline): 66 % of control and 72 % of control; T/C (dose: 200.0 mg/kg/injection, vehicle: saline): 38 % of control and 50 % of control; T/C (dose: 400.0 mg/kg/injection, vehicle: saline): 29 % of control

Question: What does the source list for `CN(C)S(=O)(=O)c1nc2nc[nH]c(=O)c2[nH]1`?
Answer: T/C [5]: 108 % of control; T/C [6]: 158 % of control; T/C (dose: 120.0 mg/kg/injection, vehicle: carboxymethylcellulose (CMC)): 101 % of control; T/C (dose: 240.0 mg/kg/injection, vehicle: carboxymethylcellulose (CMC)): 91 % of control

Question: `CC(=O)c1cccc(NC2C(N)C(NC(=O)N(C)C)(C(C)O)C(C)(O)C2(O)COC(=O)c2c(C)cccc2O)c1` (centres undefined) was tested. Which T/C (dose: 0.25 mg/kg/injection, vehicle: saline) did it give?
Answer: 36 % of control

Question: What about the T/C (dose: 0.5 mg/kg/injection, vehicle: saline) of the same compound?
Answer: 83 % of control

Question: And the T/C (dose: 1.0 mg/kg/injection, vehicle: saline)?
Answer: 67 % of control

Question: And the T/C (dose: 2.0 mg/kg/injection, vehicle: saline)?
Answer: 24 % of control

Question: With `CN(C)[C@@H]1C(=O)C(C(=O)NCNc2nc(=S)c3[nH]cnc3[nH]2)=C(O)[C@@]2(O)C(=O)C3=C(O)c4c(O)cccc4[C@@](C)(O)[C@H]3C[C@@H]12` as the compound, how does the T/C (dose: 4.0 mg/kg/injection, vehicle: carboxymethylcellulose (CMC)) read?
Answer: 52 % of control

Question: And the T/C (dose: 8.0 mg/kg/injection, vehicle: carboxymethylcellulose (CMC))?
Answer: 26 % of control

Question: And the T/C [12]?
Answer: 2 % of control

Question: What about the T/C [5] of the same compound?
Answer: 1 % of control

Question: And the T/C [2]?
Answer: 1 % of control

Question: Which T/C (dose: 30.0 mg/kg/injection, vehicle: saline) does the source give for `Cn1cnc2c(C(F)(F)F)nc(Cl)nc21` here?
Answer: 98 % of control

Question: And the T/C (dose: 60.0 mg/kg/injection, vehicle: saline)?
Answer: 91 % of control

Question: `[N-]=[N+]=NC1(C(=O)O)CCCC1` was tested. Which T/C [12] did it give?
Answer: 109 % of control

Question: What about the T/C [5] of the same compound?
Answer: 100 % of control

Question: And the T/C [6]?
Answer: 120 % of control

Question: Which T/C [1] does the source give for `Nc1nc2c(ncn2C2CCCC2)c(=O)[nH]1` here?
Answer: 88 % of control

Question: What about the T/C (dose: 75.0 mg/kg/injection, vehicle: carboxymethylcellulose (CMC)) of the same compound?
Answer: 63 % of control

Question: And the T/C (dose: 225.0 mg/kg/injection, vehicle: carboxymethylcellulose (CMC))?
Answer: 59 % of control

Question: Which results are given for `Cc1cc(Nc2ccc(CCO)cc2)nc(N)n1`?
Answer: T/C [7]: 64 % of control; T/C [13]: 75 % of control; T/C [8]: 77 % of control; T/C [9]: 85 % of control; T/C [10]: 73 % of control

Question: For `CCOP(=O)(OCC)OCC1OC(n2cnc3c(=S)nc[nH]c32)C(O)C1O` (centres undefined), which T/C (dose: 4.0 mg/kg/injection, vehicle: methylcellulose (MC)) is on record?
Answer: 50 % of control

Question: And the T/C (dose: 8.0 mg/kg/injection, vehicle: methylcellulose (MC))?
Answer: 49 % of control

Question: And the T/C (dose: 16.0 mg/kg/injection, vehicle: methylcellulose (MC))?
Answer: 56 % of control

Question: And the T/C [13]?
Answer: 33 % of control

Question: What about the T/C [8] of the same compound?
Answer: 46 % of control

Question: And the T/C [9]?
Answer: 7 % of control

Source: PubChem BioAssay AID180 (DTP/NCI, 2004)
